Laboratory results reported in ChEMBL document CHEMBL1201862, “PubChem BioAssay data set” (2004).
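Compound exposure: 48 hours, 5 concentrations, 96-well plates. GI50 marks 50% less growth.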 Calls of active or inactive are those of the source. No stated cut-off is given here; in the data, active = GI50 up to about 1.1 µM and inactive = higher.

What was measured:
Experiment in all cases: inhibition of tumour cell growth, NCI panel, 48 h
CAKI-1 = tested on: CAKI-1
COLO 205 = tested on: COLO 205
NCI-H23 = tested on: NCI-H23
SK-OV-3 = tested on: SK-OV-3
MOLT-4 = tested on: MOLT-4
TK-10 = tested on: TK-10
SNB-75 = tested on: SNB-75
KM12 = tested on: KM12
SW-620 = tested on: SW-620
SR = tested on: SR
HCC 2998 = tested on: HCC 2998
SN12C = tested on: SN12C
HCT-116 = tested on: HCT-116
A498 = tested on: A498
OVCAR-4 = tested on: OVCAR-4
UO-31 = tested on: UO-31
NCI-H226 = tested on: NCI-H226
OVCAR-5 = tested on: OVCAR-5
MCF7 = tested on: MCF7
786-0 = tested on: 786-0

SMILES | GI50 (CAKI-1) | GI50 (COLO 205) | GI50 (NCI-H23) | GI50 (SK-OV-3) | GI50 (MOLT-4) | GI50 (TK-10) | GI50 (SNB-75) | GI50 (KM12) | GI50 (SW-620) | GI50 (SR) | GI50 (HCC 2998) | GI50 (SN12C) | GI50 (HCT-116) | GI50 (A498) | GI50 (OVCAR-4) | GI50 (UO-31) | GI50 (NCI-H226) | GI50 (OVCAR-5) | GI50 (MCF7) | GI50 (786-0)
CC(=O)O[C@H]1C=CC(=O)C(C)CC1C (some centres undefined) | > 100 µM (inactive) | 55.8 µM (inactive) | 75.9 µM (inactive) | > 100 µM (inactive) | > 100 µM (inactive) | > 100 µM (inactive) | > 100 µM (inactive) | > 100 µM (inactive) | 73.5 µM (inactive) | > 100 µM (inactive) | > 100 µM (inactive) | > 100 µM (inactive) | 44.8 µM (inactive) | > 100 µM (inactive) | > 100 µM (inactive) | > 100 µM (inactive) | > 100 µM (inactive) | > 100 µM (inactive) | – | –
CCCCS(=O)(=O)Nc1ccc(Nc2c3ccccc3nc3ccccc23)c(OC)c1 | 0.574 µM (active) | 5.78 µM (inactive) | 1.11 µM (active) | 5.07 µM (inactive) | 0.0718 µM (active) | – | 1.52 µM (inactive) | 3.45 µM (inactive) | 0.675 µM (active) | – | 3.21 µM (inactive) | 0.828 µM (active) | 1.73 µM (inactive) | 2.05 µM (inactive) | 5.6 µM (inactive) | 1.5 µM (inactive) | 0.881 µM (active) | 13.7 µM (inactive) | 1.13 µM (inactive) | –
CC1=C(C(=O)Nc2ccc(Cl)c(Cl)c2)C(c2ccc([N+](=O)[O-])cc2)C(C(=O)Nc2ccc(Cl)c(Cl)c2)=C(C)N1 | 2.54 µM (inactive) | 1.71 µM (inactive) | 2.21 µM (inactive) | 4.31 µM (inactive) | 0.223 µM (active) | 7.18 µM (inactive) | 3.84 µM (inactive) | 1.82 µM (inactive) | 3.05 µM (inactive) | 0.179 µM (active) | 2 µM (inactive) | 2.34 µM (inactive) | 1.55 µM (inactive) | 3.32 µM (inactive) | 2.64 µM (inactive) | 2.69 µM (inactive) | 3.88 µM (inactive) | 3.23 µM (inactive) | – | 2.81 µM (inactive)
Cc1nc(C)c(C(=O)NNC(=O)C[N+](C)(C)C)cc1C(=O)NNC(=O)C[N+](C)(C)C | > 100 µM (inactive) | > 100 µM (inactive) | > 100 µM (inactive) | > 100 µM (inactive) | – | > 100 µM (inactive) | > 100 µM (inactive) | > 100 µM (inactive) | > 100 µM (inactive) | – | > 100 µM (inactive) | > 100 µM (inactive) | > 100 µM (inactive) | > 100 µM (inactive) | > 100 µM (inactive) | > 100 µM (inactive) | > 100 µM (inactive) | > 100 µM (inactive) | > 100 µM (inactive) | > 100 µM (inactive)
O=S(=O)(O)Nc1ccc(-c2nc3ccccc3s2)cc1Cl | > 100 µM (inactive) | > 100 µM (inactive) | > 100 µM (inactive) | > 100 µM (inactive) | – | 8.09 µM (inactive) | > 100 µM (inactive) | > 100 µM (inactive) | > 100 µM (inactive) | > 100 µM (inactive) | > 100 µM (inactive) | > 100 µM (inactive) | > 100 µM (inactive) | > 100 µM (inactive) | > 100 µM (inactive) | > 100 µM (inactive) | 14.6 µM (inactive) | 16.1 µM (inactive) | – | > 100 µM (inactive)
COC1CC(OC2CCC3(C)C(=CCC4C3C(OC(C)=O)C(OC(=O)CC(C)C)C3(C)C(C(C)=O)CCC43O)C2)OC(C)C1OC1CC(OC)C(OC2CC(OC)C(OC3OC(C)C(OC4OC(CO)C(O)C(O)C4O)C(OC)C3O)C(C)O2)C(C)O1 (centres undefined) | > 75 µM (inactive) | > 75 µM (inactive) | > 75 µM (inactive) | > 75 µM (inactive) | > 75 µM (inactive) | > 75 µM (inactive) | > 75 µM (inactive) | > 75 µM (inactive) | > 75 µM (inactive) | – | > 75 µM (inactive) | > 75 µM (inactive) | > 75 µM (inactive) | > 75 µM (inactive) | > 75 µM (inactive) | > 75 µM (inactive) | > 75 µM (inactive) | > 75 µM (inactive) | > 75 µM (inactive) | > 75 µM (inactive)
Cc1cccc(C)c1NC(=O)CCc1nnc2s/c(=C\c3ccc(N(C)C)cc3)c(=O)n12 | > 100 µM (inactive) | > 100 µM (inactive) | > 100 µM (inactive) | > 100 µM (inactive) | 53.3 µM (inactive) | > 100 µM (inactive) | > 100 µM (inactive) | > 100 µM (inactive) | > 100 µM (inactive) | > 100 µM (inactive) | > 100 µM (inactive) | > 100 µM (inactive) | > 100 µM (inactive) | > 100 µM (inactive) | > 100 µM (inactive) | > 100 µM (inactive) | > 100 µM (inactive) | > 100 µM (inactive) | – | > 100 µM (inactive)
[O-][S+]1c2ccccc2N=C(c2ccc(Cl)cc2)CC1c1cccs1 (centres undefined) | 21.4 µM (inactive) | 20 µM (inactive) | 23.8 µM (inactive) | 28.9 µM (inactive) | 26 µM (inactive) | 39.3 µM (inactive) | 46.7 µM (inactive) | 14.7 µM (inactive) | 14.4 µM (inactive) | 7.01 µM (inactive) | 16.3 µM (inactive) | 19 µM (inactive) | 10.9 µM (inactive) | 97.1 µM (inactive) | 11 µM (inactive) | 17.7 µM (inactive) | 90.4 µM (inactive) | 16.7 µM (inactive) | – | 15 µM (inactive)
Cc1cccc(C)c1NC(=O)CCC(=O)NNC(=O)c1cc(O)c2ccccc2c1 | 31.8 µM (inactive) | 18.7 µM (inactive) | 26.3 µM (inactive) | 97.9 µM (inactive) | 19.5 µM (inactive) | 70.1 µM (inactive) | > 100 µM (inactive) | 99.1 µM (inactive) | 40 µM (inactive) | 28.2 µM (inactive) | 51.9 µM (inactive) | 78.7 µM (inactive) | 31.9 µM (inactive) | 0.344 µM (active) | – | 32.1 µM (inactive) | > 100 µM (inactive) | 32.7 µM (inactive) | – | 38 µM (inactive)
Cc1cc(O)c2c(c1)C(=O)c1c(c(O)cc(O)c1-c1c(O)cc(O)c3c1C(=O)c1cc(C)cc(O)c1C3=O)C2=O [SKYRIN] | 16.8 µM (inactive) | 24.8 µM (inactive) | 13.1 µM (inactive) | 32.4 µM (inactive) | 8.59 µM (inactive) | – | 15.8 µM (inactive) | 9.08 µM (inactive) | 14.4 µM (inactive) | – | 11.4 µM (inactive) | 10.6 µM (inactive) | 8.99 µM (inactive) | 14.4 µM (inactive) | 10.9 µM (inactive) | 5.26 µM (inactive) | 3.07 µM (inactive) | 38 µM (inactive) | 15 µM (inactive) | –
Nc1nc(O)c2ncn(C3OC(CO)C(O)C3O)c2n1 (centres undefined) | 77.1 µM (inactive) | 57 µM (inactive) | 17.4 µM (inactive) | 95.7 µM (inactive) | 48.2 µM (inactive) | – | 15.4 µM (inactive) | 80 µM (inactive) | 76.7 µM (inactive) | – | 17.1 µM (inactive) | 79.8 µM (inactive) | 68.1 µM (inactive) | 3.81 µM (inactive) | 15.9 µM (inactive) | 63.7 µM (inactive) | 72.6 µM (inactive) | 111 µM (inactive) | 33.8 µM (inactive) | –
O=C(Nc1ccc(F)cc1)c1cc2c(cc1Cl)Sc1nccn1S2(=O)=O | 30.7 µM (inactive) | > 100 µM (inactive) | – | 94.6 µM (inactive) | > 100 µM (inactive) | – | 17.8 µM (inactive) | > 100 µM (inactive) | > 100 µM (inactive) | – | > 100 µM (inactive) | 51.2 µM (inactive) | 35.6 µM (inactive) | 23.7 µM (inactive) | 55.7 µM (inactive) | – | > 100 µM (inactive) | > 100 µM (inactive) | 77.8 µM (inactive) | 28.2 µM (inactive)
CCOC(=O)c1csc(NC(=O)C(C)N2CCCC2)n1 (centres undefined) | > 100 µM (inactive) | > 100 µM (inactive) | > 100 µM (inactive) | > 100 µM (inactive) | – | > 100 µM (inactive) | > 100 µM (inactive) | > 100 µM (inactive) | > 100 µM (inactive) | – | > 100 µM (inactive) | – | – | > 100 µM (inactive) | > 100 µM (inactive) | > 100 µM (inactive) | – | > 100 µM (inactive) | > 100 µM (inactive) | –
COc1ccc2c(c1)CCCN1Cc3cc(OC)c(OC)cc3CC21 (centres undefined) | > 100 µM (inactive) | 51.1 µM (inactive) | > 100 µM (inactive) | 66.2 µM (inactive) | > 100 µM (inactive) | > 100 µM (inactive) | 21.4 µM (inactive) | > 100 µM (inactive) | > 100 µM (inactive) | – | 15.8 µM (inactive) | 89.1 µM (inactive) | 18.2 µM (inactive) | – | 43.7 µM (inactive) | 48.8 µM (inactive) | > 100 µM (inactive) | > 100 µM (inactive) | > 100 µM (inactive) | 73.3 µM (inactive)
Cc1ccc(P(c2ccc(C)cc2)c2ccc(C)cc2)cc1 | 23.2 µM (inactive) | 14.5 µM (inactive) | 27.9 µM (inactive) | 30.4 µM (inactive) | 16.5 µM (inactive) | 31 µM (inactive) | 15.2 µM (inactive) | 15.8 µM (inactive) | 26.2 µM (inactive) | – | 16.1 µM (inactive) | 17 µM (inactive) | 12.4 µM (inactive) | 27.1 µM (inactive) | 19.8 µM (inactive) | < 0.01 µM (active) | – | 21.3 µM (inactive) | 31.3 µM (inactive) | –
